Legend:
[1] = test system: human leukemia HL-60 cells; assay: Proliferation inhibition of human leukemia HL-60 cells, MTT method; format: cell-based; conditions: 48 h incubation, OPTI-MEM medium
Procedure: The inhibition rate of human leukemia HL-60 cells was evaluated by regular MTT method. The human leukemia HL-60 cells were picked up from cell incubator, after washed for twice using PBS, cells were digested by 0.25% trypsin, and then add medium to terminate the digestion. After cells were collected using centrifuge and re-suspended, counting cells under inverted microscope and adding medium to make a density which was 5×10^4 cells/mL. After 100 μL aliquots were added to each well of 96-well microtiter plates, cells were cultured in 5% incubator for overnight at 37° C., then the different concentration compounds were added to each well. After incubation for 48 h, MTT solution was added to each well and plates were then incubated for 4 h. The MTT tetrazolium was reduced to formazan by living cells. Then the formazan crystals were dissolved though adding DMSO to each well. The absorbance was read at 570 nm with a microplate reader.

[2] = test system: lung cancer cell line H460; assay: In vitro cell inhibition assay (crystal violet), lung cancer H460; format: cell-based, human
From the text: (§1) In vitro Cell inhibition assay is as follows:
(§2) The human cancer cell lines used for this assay were bladder cancer J82, T24, prostate cancer LNCap, PC-3, lung cancer A549, H157, H460, H520, colon cancer HCT8, HCT116, RkO, and leukemia HL-60, etc.
(§3) In vitro cell culture technology was selected for the determination of inhibition rate bladder cancer cell lines J82 and T24, prostate cancer cell lines LNCap and PC-3, lung cancer cell lines A549, H157, H460 and H520. 1000 to 3000 cells were inoculated to 24-well plate, followed by addition of 1 mL culture medium well known to researchers in this field to each well, the cells were cultured in 5% incubator for 24 hours at 37° C., then the different concentration compounds and controls were added to each well. It should be noted that the added volume is not more than 0.5% of total volume. After completion of addition, the cells continued being cultured in incubator for one week, the culture medium was removed and washed by cold PBS of 1 mL once, and then fixed for 10 minutes at room temperature with 1% formalin, followed by wash with PBS of 1 mL. After fixation, stain was carried out with 0.1% crystal violet for 30 minutes. 0.1% crystal violet was recycled. The stained cells were washed gently with deionized water, dried at room temperature and kepted. The inhibition rate was calculated according to the foiling equation. The controls are Selumetinib (AZD6244), Gefitinib, Cisplatin. Inhibition rate=number of left cells each treatment/number of left cells of untreated control×100%

[3] = test system: lung cancer cell line H520; assay: In vitro cell inhibition assay (crystal violet), lung cancer H520; format: cell-based, human
From the text: as §1, §2, §3

[4] = test system: lung cancer cell line A549; assay: In vitro cell inhibition assay (crystal violet), lung cancer A549; format: cell-based, human
From the text: as §1, §2, §3

colon cancer HCT8 = assay: In vitro cell inhibition assay, colon cancer HCT8; format: cell-based, human
From the text: as §1, §2

colon cancer HCT116 = assay: In vitro cell inhibition assay, colon cancer HCT116; format: cell-based, human
From the text: as §1, §2

colon cancer RkO = assay: In vitro cell inhibition assay, colon cancer RkO; format: cell-based, human
From the text: as §1, §2

SMILES: COC=C(C(=O)OC)c1ccccc1COc1ccc2c(C)c(Cc3ccccc3)c(=O)oc2c1 [Compound 28-68]
- Proliferation inhibitory effect on human leukemia HL-60 cell (%) ([1]; concentration 1 μM): 54.6%
- Proliferation inhibitory effect on human leukemia HL-60 cell (%) ([1]; concentration 10 μM): 62.0%
- Proliferation inhibitory effect on human leukemia HL-60 cell (%) ([1]; concentration 100 μM): 84.4%

SMILES: COC=C(C(=O)OC)c1ccccc1COc1ccc2c(-c3ccc(Cl)nc3)cc(=O)oc2c1 [Compound 28-124]
- Inhibition rate on human cancer cells ([2]; H460, 5.0 μM): 75%
- Inhibition rate on human cancer cells ([3]; H520, 5.0 μM): 70%
- Proliferation inhibitory effect on human leukemia HL-60 cell (%) ([1]; concentration 1 μM): 0.5%
- Proliferation inhibitory effect on human leukemia HL-60 cell (%) ([1]; concentration 10 μM): 29.3%
- Proliferation inhibitory effect on human leukemia HL-60 cell (%) ([1]; concentration 100 μM): 27.8%

SMILES: COC=C(C(=O)OC)c1ccccc1COc1ccc2c(-c3ccc(F)cc3)cc(=O)oc2c1 [Compound 28-38]
- Proliferation inhibitory effect on human leukemia HL-60 cell (%) ([1]; concentration 1 μM): 77.5%
- Proliferation inhibitory effect on human leukemia HL-60 cell (%) ([1]; concentration 10 μM): 72.9%
- Proliferation inhibitory effect on human leukemia HL-60 cell (%) ([1]; concentration 100 μM): 63.7%

SMILES: COC=C(C(=O)OC)c1ccccc1COc1ccc2c(C)c(C(C)C)c(=O)oc2c1 [Compound 28-71]
- Proliferation inhibitory effect on human leukemia HL-60 cell (%) ([1]; concentration 1 μM): 40.9%
- Proliferation inhibitory effect on human leukemia HL-60 cell (%) ([1]; concentration 10 μM): 48.2%
- Proliferation inhibitory effect on human leukemia HL-60 cell (%) ([1]; concentration 100 μM): 50.3%

SMILES: COC=C(C(=O)OC)c1ccccc1COc1ccc2c3c(c(=O)oc2c1)CCC3 [Compound 28-125]
- Proliferation inhibitory effect on human leukemia HL-60 cell (%) ([1]; concentration 1 μM): 47.0%
- Proliferation inhibitory effect on human leukemia HL-60 cell (%) ([1]; concentration 10 μM): 73.8%
- Proliferation inhibitory effect on human leukemia HL-60 cell (%) ([1]; concentration 100 μM): 85.0%

SMILES: COC=C(C(=O)OC)c1ccccc1COc1ccc2c3c(c(=O)oc2c1C)CCCC3 [Compound 28-129]
- Inhibition rate on human cancer cells ([4]; A549, 0.25 μM): 90%
- Inhibition rate on human cancer cells ([4]; A549, 0.5 μM): 95%
- Inhibition rate on human cancer cells ([4]; A549, 1.0 μM): 100%
- Inhibition rate on human cancer cells ([4]; A549, 2.5 μM): 100%
- Inhibition rate on human cancer cells ([4]; A549, 5.0 μM): 100%
- Inhibition rate on human cancer cells ([2]; H460, 0.5 μM): 70%
- Inhibition rate on human cancer cells ([2]; H460, 1.0 μM): 95%
- Inhibition rate on human cancer cells ([2]; H460, 2.5 μM): 100%
- Inhibition rate on human cancer cells ([2]; H460, 5.0 μM): 100%
- Inhibition rate on human cancer cells ([3]; H520, 0.25 μM): 85%
- Inhibition rate on human cancer cells ([3]; H520, 0.5 μM): 95%
- Inhibition rate on human cancer cells ([3]; H520, 1.0 μM): 100%
- Inhibition rate on human cancer cells ([3]; H520, 2.5 μM): 100%
- Inhibition rate on human cancer cells ([3]; H520, 5.0 μM): 100%
- Inhibition rate on human cancer cells (colon cancer HCT8; HCT 8, 0.25 μM): 80%
- Inhibition rate on human cancer cells (colon cancer HCT8; HCT 8, 0.5 μM): 95%
- Inhibition rate on human cancer cells (colon cancer HCT8; HCT 8, 1.0 μM): 100%
- Inhibition rate on human cancer cells (colon cancer HCT8; HCT 8, 2.5 μM): 100%
- Inhibition rate on human cancer cells (colon cancer HCT8; HCT 8, 5.0 μM): 100%
- Inhibition rate on human cancer cells (colon cancer HCT116; HCT 116, 0.25 μM): 90%
- Inhibition rate on human cancer cells (colon cancer HCT116; HCT 116, 0.5 μM): 95%
- Inhibition rate on human cancer cells (colon cancer HCT116; HCT 116, 1.0 μM): 100%
- Inhibition rate on human cancer cells (colon cancer HCT116; HCT 116, 2.5 μM): 100%
- Inhibition rate on human cancer cells (colon cancer HCT116; HCT 116, 5.0 μM): 100%
- Inhibition rate on human cancer cells (colon cancer RkO; 0.25 μM): 85%
- Inhibition rate on human cancer cells (colon cancer RkO; 0.5 μM): 99%
- Inhibition rate on human cancer cells (colon cancer RkO; 1.0 μM): 100%
- Inhibition rate on human cancer cells (colon cancer RkO; 2.5 μM): 100%
- Inhibition rate on human cancer cells (colon cancer RkO; 5.0 μM): 100%

SMILES: CCCc1c(CCC)c2ccc(OCc3ccccc3C(=COC)C(=O)OC)cc2oc1=O [Compound 28-79]
- Proliferation inhibitory effect on human leukemia HL-60 cell (%) ([1]; concentration 1 μM): 28.8%
- Proliferation inhibitory effect on human leukemia HL-60 cell (%) ([1]; concentration 10 μM): 53.1%
- Proliferation inhibitory effect on human leukemia HL-60 cell (%) ([1]; concentration 100 μM): 71.2%

SMILES: COC=C(C(=O)OC)c1ccccc1COc1ccc2c(C)cc(=O)oc2c1C [Compound 28-3]
- Proliferation inhibitory effect on human leukemia HL-60 cell (%) ([1]; concentration 1 μM): 4.1%
- Proliferation inhibitory effect on human leukemia HL-60 cell (%) ([1]; concentration 10 μM): 33.4%
- Proliferation inhibitory effect on human leukemia HL-60 cell (%) ([1]; concentration 100 μM): 58.8%

— US9895346B2, “Applications of substituent benzyloxy group containing ether compounds for preparing antitumor drugs” (Sinochem Corporation, priority 2013, dated 2018)
